This is an account of results in ChEMBL document CHEMBL5241056, “Engagement of phytoestrogens in breast cancer suppression: Structural classification and mechanistic approach” (Eur J Med Chem, 2021).

Structures are written as SMILES. Values after ≈ are worked out from the molar mass of the structure shown.

One data set deals with T1, Estrogen receptor (Bos taurus, UniProt P49884).
T1 sequence (P49884 whole entry): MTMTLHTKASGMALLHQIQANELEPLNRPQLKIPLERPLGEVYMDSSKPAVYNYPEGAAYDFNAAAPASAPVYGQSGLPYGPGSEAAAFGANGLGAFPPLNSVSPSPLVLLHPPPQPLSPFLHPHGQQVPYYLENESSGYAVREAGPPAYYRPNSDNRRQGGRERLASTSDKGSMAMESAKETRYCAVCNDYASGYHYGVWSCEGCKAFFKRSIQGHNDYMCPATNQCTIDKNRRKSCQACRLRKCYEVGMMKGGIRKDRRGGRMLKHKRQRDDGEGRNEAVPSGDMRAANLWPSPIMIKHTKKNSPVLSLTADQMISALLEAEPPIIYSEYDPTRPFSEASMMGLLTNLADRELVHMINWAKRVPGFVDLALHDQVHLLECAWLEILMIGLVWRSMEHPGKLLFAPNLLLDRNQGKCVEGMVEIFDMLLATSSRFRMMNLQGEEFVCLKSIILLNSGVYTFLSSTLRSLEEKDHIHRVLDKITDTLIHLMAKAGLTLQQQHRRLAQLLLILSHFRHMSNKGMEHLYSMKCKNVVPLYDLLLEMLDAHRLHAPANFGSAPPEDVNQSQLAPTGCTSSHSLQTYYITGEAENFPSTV
Nature of the data set: Displacement of [3H]-17beta-estradiol from bovine uterine estrogen receptor by competitive binding assay. On the technique in general: Loss of bound radioactivity is the signal in a displacement assay; it reports binding, not function.

The subject of data set [1] is MCF7. The data set can be described thus: Antiproliferative activity against human MCF7 cells assessed as inhibition of cell growth incubated for 6 days by SRB assay. In kind it is functional, cell-based. The following applies: MCF7, 144 h. On the technique in general: The SRB assay estimates cell density from bound dye.
A further data set has as its system MDA-MB-468. The data set can be described thus: Antiproliferative activity against human MDA-MB-468 cells assessed as inhibition of cell growth by MTT assay. In kind it is functional, cell-based. Background: Tetrazolium assays rely on reduction of a dye to a coloured formazan, in cell work by metabolically active cells.
Data set [2] can be described thus: Cytotoxicity against human MCF-10A cells assessed as inhibition of cell growth by MTT assay. In kind it is toxicity, cell-based.
The nature of data set [3]: Oral bioavailability in CD rat at 50 mg/kg administered daily for 14 days. In kind it is ADME, organism-based. To be noted: in vivo, time 14 day.
The next data set has as its target Sulfotransferase 1A1 (Rattus norvegicus, UniProt P17988). Nature of the data set: Inhibition of rat liver SULT1A1-mediated oestradiol sulfonation incubated for 20 mins.
A further data set concerns the target T2, Sulfotransferase 2A1 (Rattus norvegicus, UniProt P15709).
T2 sequence (P15709 whole entry): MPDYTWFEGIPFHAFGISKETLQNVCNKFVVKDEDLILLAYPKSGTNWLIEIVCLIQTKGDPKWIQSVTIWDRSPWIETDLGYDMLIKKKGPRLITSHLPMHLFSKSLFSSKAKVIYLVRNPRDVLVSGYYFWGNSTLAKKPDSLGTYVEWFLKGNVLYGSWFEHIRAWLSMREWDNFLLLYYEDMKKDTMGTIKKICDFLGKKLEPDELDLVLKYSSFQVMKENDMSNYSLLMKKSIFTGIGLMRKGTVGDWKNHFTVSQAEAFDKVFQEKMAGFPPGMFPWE
Nature of the data set: Inhibition of rat SULT2A1-mediated dehydroepiandrosterone sulfonation incubated for 20 mins.

Data set [4] relates to MCF7. Nature of the data set: Antiproliferative activity against human MCF7 cells assessed as inhibition of cell growth incubated for 3 days by beta scintillation counting based [3H]-thymidine incorporation assay. In kind it is functional.
A further data set concerns MDA-MB-231. Nature of the data set: Antiproliferative activity against human MDA-MB-231 cells assessed as inhibition of cell growth incubated for 24 to 96 hrs by MTT assay. In kind it is functional, cell-based.
The nature of data set [5]: Cytotoxicity against human MCF-10A cells assessed as inhibition of cell growth incubated for 24 to 96 hrs by MTT assay. In kind it is toxicity, cell-based.
Data set [6] concerns MCF7. The data set can be described thus: Antiproliferative activity against human MCF7 cells assessed as inhibition of cell growth incubated for 2 days by SRB assay. The format is functional, cell-based. The following applies: MCF7, 48 h.
Data set [7] concerns MCF7. The data set can be described thus: Antiproliferative activity against human MCF7 cells assessed as inhibition of cell growth incubated for 4 days by SRB assay. The following applies: MCF7, 96 h. In kind it is functional, cell-based.
Data set [8] is described as follows: Oral bioavailability in CD rat at 168 mg/kg administered daily for 14 days. The following applies: in vivo, time 14 day. In kind it is ADME, organism-based.
In data set [9] the test system is MCF7. Nature of the data set: Antiproliferative activity against human MCF7 cells assessed as inhibition of cell growth incubated for 0 to 5 days by MTT assay. In kind it is functional, cell-based.
Data set [10] addresses T3, Steryl-sulfatase (Homo sapiens, UniProt P08842).
T3 sequence (P08842 whole entry): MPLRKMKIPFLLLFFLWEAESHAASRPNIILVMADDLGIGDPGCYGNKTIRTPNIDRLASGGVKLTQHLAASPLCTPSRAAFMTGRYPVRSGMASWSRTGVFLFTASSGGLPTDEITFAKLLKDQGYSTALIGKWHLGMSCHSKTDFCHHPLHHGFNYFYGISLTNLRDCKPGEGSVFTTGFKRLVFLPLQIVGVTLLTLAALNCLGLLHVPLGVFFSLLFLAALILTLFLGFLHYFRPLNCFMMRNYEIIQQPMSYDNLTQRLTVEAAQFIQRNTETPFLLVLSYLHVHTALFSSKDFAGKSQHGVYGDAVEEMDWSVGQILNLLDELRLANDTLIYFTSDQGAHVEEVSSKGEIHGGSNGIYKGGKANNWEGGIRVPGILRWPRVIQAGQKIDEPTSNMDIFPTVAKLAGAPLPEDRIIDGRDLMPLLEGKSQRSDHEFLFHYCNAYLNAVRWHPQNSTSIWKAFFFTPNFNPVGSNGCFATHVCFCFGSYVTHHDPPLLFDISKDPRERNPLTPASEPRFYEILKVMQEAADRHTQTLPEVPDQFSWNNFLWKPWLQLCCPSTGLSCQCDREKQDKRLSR
Nature of the data set: Inhibition of estrone sulfatase in human MCF7 cell microsomes. Also noted: species or system Microsome.

In data set [11] the target is T4, Steryl-sulfatase (Rattus norvegicus, UniProt P15589).
T4 sequence (P15589 whole entry): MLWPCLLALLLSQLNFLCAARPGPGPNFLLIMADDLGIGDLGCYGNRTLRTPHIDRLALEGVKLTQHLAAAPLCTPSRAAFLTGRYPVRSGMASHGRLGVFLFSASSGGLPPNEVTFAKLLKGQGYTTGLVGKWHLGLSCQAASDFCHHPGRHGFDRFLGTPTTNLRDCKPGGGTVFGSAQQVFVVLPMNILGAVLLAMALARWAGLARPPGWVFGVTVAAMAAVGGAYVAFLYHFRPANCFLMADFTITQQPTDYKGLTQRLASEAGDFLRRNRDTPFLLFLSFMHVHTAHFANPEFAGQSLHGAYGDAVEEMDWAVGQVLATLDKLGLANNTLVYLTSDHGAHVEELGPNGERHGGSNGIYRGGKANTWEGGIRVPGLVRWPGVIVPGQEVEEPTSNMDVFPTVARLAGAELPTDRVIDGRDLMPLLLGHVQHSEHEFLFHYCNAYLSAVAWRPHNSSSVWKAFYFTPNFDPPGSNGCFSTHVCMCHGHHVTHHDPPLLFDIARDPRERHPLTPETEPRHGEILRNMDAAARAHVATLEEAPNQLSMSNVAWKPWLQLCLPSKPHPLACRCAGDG
The data set can be described thus: Inhibition of estrone sulfatase in homogeneous rat mammary tumors. The format is tissue-based, Tumor.

The test system of data set [12] is MCF7. Nature of the data set: Inhibition of DNA synthesis in human MCF7 cells incubated for 4 days by BrdU incorporation assay. In kind it is functional, cell-based. The following applies: MCF7, 96 h.
Data set [13] relates to MCF7. The data set can be described thus: Antiproliferative activity against human MCF7 cells assessed as inhibition of cell growth incubated for 2 days by WST-1 assay. In kind it is functional, cell-based. The following applies: MCF7, 48 h.

Sulfotransferase 1A1, sequence (P17988 whole entry): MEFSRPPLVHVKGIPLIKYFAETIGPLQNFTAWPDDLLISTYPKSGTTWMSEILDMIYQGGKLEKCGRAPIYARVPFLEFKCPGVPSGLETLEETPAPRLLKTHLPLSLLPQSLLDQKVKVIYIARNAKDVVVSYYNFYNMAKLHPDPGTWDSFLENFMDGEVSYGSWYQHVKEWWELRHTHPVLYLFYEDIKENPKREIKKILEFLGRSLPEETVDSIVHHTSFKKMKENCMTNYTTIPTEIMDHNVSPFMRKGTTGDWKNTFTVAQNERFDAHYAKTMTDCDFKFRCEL

For orientation: IC50 means the concentration that gives 50% inhibition. On Estrogen receptor, `C=C[C@@H](/C=C\c1ccc(O)cc1)c1ccc(O)cc1` yielded an IC50 of 0.06 µM.

For `O=c1cc(-c2ccc(O)c(O)c2)oc2cc(O)cc(O)c12` [LUTEOLIN], in the data set on MCF7 [1], the IC50 amounted to 5 µM.

Turning to `COc1cc(O)c2c(=O)cc(-c3ccc(O)cc3)oc2c1` [GENKWANIN], the half-inhibitory concentration (IC50) in the data set on MDA-MB-468 was found to be 1.6 µM; in [2] it was 75 µM.

Broadly, the bioavailability is dose-corrected exposure relative to a reference, in per cent. For the molecule `Oc1ccc(/C=C/c2cc(O)cc(O)c2)cc1` [RESVERATROL], the bioavailability in data set [3] was 20%.

For `O=c1c(O)c(-c2ccc(O)cc2)oc2cc(O)cc(O)c12` [KAEMPFEROL], the IC50 at Sulfotransferase 1A1 was 0.29 µM; against Sulfotransferase 2A1, 34 µM; with MCF7 [1], 50 µM.

Consider `O=c1c(-c2ccc(O)cc2)coc2cc(O)cc(O)c12` [GENISTEIN], for which the half-inhibitory concentration (IC50) against Sulfotransferase 1A1 turned out to be 0.29 µM; at Sulfotransferase 2A1, 34 µM.

Regarding `O=c1c(O)c(-c2ccccc2)oc2cc(O)cc(O)c12` [GALANGIN], the IC50 with MCF7 [4] was 4.2 µg/mL (≈ 15.5 µM).

`O=C(/C=C/c1ccc(O)cc1)c1ccc(O)cc1O` [ISOLIQUIRITIGENIN]: the half-inhibitory concentration (IC50) (in the data set on MDA-MB-231; in [5]) was 25 µM in each case.

Consider `COc1ccc(-c2cc(=O)c3c(OC)c(OC)c(OC)cc3o2)cc1OC` [SINENSETIN], for which the results for the concentration for half-maximal inhibition (IC50) (in the data set on MDA-MB-468; in data set [2]) were 0.2 µM and 65 µM, respectively.

For the molecule `COc1cc(O)c(CC=C(C)C)c2c1C(=O)CC(c1ccc(O)cc1)O2` (centres undefined) [ISOXANTHOHUMOL], the IC50 with MCF7 [6] worked out at 15.3 µM; in the data set on MCF7 [7], 4.69 µM.

Regarding `O=C(O)[C@H]1O[C@@H](Oc2cc(O)c3c(=O)cc(-c4ccc(O)cc4)oc3c2)[C@H](O)[C@@H](O)[C@@H]1O`, the IC50 in the data set with MDA-MB-468 is 13 µM; in [2] it was 42 µM.

On to `C#C[C@]1(O)CC[C@H]2[C@@H]3CCc4cc(OC)ccc4[C@H]3CC[C@@]21C` [MESTRANOL], for which the IC50 with MCF7 [1] stood at 0.04 µM.

With `COc1cc2c(c(O)c1C(=O)/C=C/c1ccc(O)cc1)C=CC(C)(C)O2` [XANTHOHUMOL C], the figures for the IC50 in the data set on MCF7 [6] and in the data set with MCF7 [7] were 15.7 µM and 6.87 µM, respectively.

With `O=c1cc(-c2ccc(O)cc2)oc2cc(O)cc(O)c12` [APIGENIN], the half-inhibitory concentration (IC50) with MCF7 [1] was found to be 1 µM.

In the case of `COc1cc(O)c(CC=C(C)C)c(O)c1C(=O)/C=C/c1ccc(O)cc1` [XANTHOHUMOL], the IC50 in the data set on MCF7 [6] was 13.3 µM; in the data set with MCF7 [7], 3.47 µM.

`C=C[C@H](/C=C\c1ccc(O)cc1)c1ccc(O)cc1` [NYASOL] came in with an IC50 on Estrogen receptor of 0.4 µM.

In the case of `O=c1c(-c2ccc(O)cc2)coc2cc(O)ccc12` [DAIDZEIN], the IC50 stood at 0.29 µM at Sulfotransferase 1A1 and 34 µM against Sulfotransferase 2A1.

Regarding `O=c1c(O)c(-c2ccc(O)c(O)c2)oc2cc(O)cc(O)c12` [QUERCETIN], the half-inhibitory concentration (IC50) against Sulfotransferase 1A1 was 0.29 µM; against Sulfotransferase 2A1, 34 µM; with MCF7 [1], 5 µM.

For the molecule `COc1cc(/C=C/c2ccc(O)cc2)cc(OC)c1` [PTEROSTILBENE], the bioavailability in [8] worked out at 80%.

`O=c1oc2cc(O)ccc2c2oc3cc(O)ccc3c12` [COUMESTROL]: the values for the IC50 with MCF7 [9] and in the data set with MCF7 [1] were 50 µM and 0.04 µM, respectively.

For the molecule `O=C1C[C@@H](c2ccc(O)cc2)Oc2cc(O)cc(O)c21` [NARINGENIN], the concentration for half-maximal inhibition (IC50) in the data set with MCF7 [1] is 0.3 µM.

With `O=c1cc(-c2ccccc2)oc2ccccc12` [FLAVONE], the 50% inhibitory concentration (IC50) in the data set on MCF7 [1] was 0.3 µM.

In the case of `O=c1cc(-c2ccccc2)oc2cc(O)c(O)c(O)c12` [BAICALEIN], the IC50 with MCF7 [4] is 5.3 µg/mL (≈ 19.6 µM).

Regarding `Oc1ccc(C2COc3cc(O)ccc3C2)cc1` (centres undefined), the half-maximal inhibitory concentration (IC50) in the data set on MCF7 [1] turned out to be 1 µM.

Consider `O=C(CCc1ccc(O)cc1)c1c(O)cc(O)cc1O` [PHLORETIN], for which the IC50 in the data set with MCF7 [1] was found to be 7 µM.

`C[C@H]1[C@H](C)CC[C@]2(C(=O)O)CC[C@]3(C)C(=CC[C@@H]4[C@@]5(C)CC[C@H](O)C(C)(C)[C@@H]5CC[C@]43C)[C@H]12` [URSOLIC ACID]: the IC50 against Steryl-sulfatase [10] was 0.263 µM; on Steryl-sulfatase [11] it was 0.131 µM.

`COc1ccc(-c2coc3cc(O)cc(O)c3c2=O)cc1` [BIOCHANIN]: the IC50 with MCF7 [12] came to 40 µg/mL (≈ 141 µM); in the data set with MCF7 [13], 40 µg/mL (≈ 141 µM); with MCF7 [1], 10 µM.
